A short description of the data set: gradient 5% acetonitrile 3 min, to 50% in 2 min, to 85% in 15 min, held 3 min, 100 µL/min. The conditions noted are these: column: Zorbax Extend-C18 2.1 x 50 mm; eluents: water / acetonitrile, 0.1% formic acid. An outline of the steps:
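The system's dead and dwell volumes were 40 μL and 900 μL, with a Zorbax Extend-C18 column (2.1 × 50 mm, 1.8 μm) run at 100 μL/min in water and acetonitrile containing 0.1% formic acid each. Pure standards were analyzed in mixtures of ~100 molecules by HPLC–quadrupole time-of-flight mass spectrometry in positive and negative ionization mode. Retention time was assigned from computationally picked, manually inspected adduct peaks.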
As to `c1ccc(N2CCN(c3ccc4nncn4n3)CC2)nc1`, the RP-LC retention time came out at 537 s.
Compound `O=c1ccn(-c2cccc(F)c2)nc1-c1nc(-c2ccccc2F)no1` yielded an RP-LC retention time of 846 s.
Turning to `CCn1ccc(C(=O)N2CCC(CC(=O)NC3CC3)C2)n1` (stereo not given), the RP-LC retention time was determined as 630 s.
Then `CCOc1ccc(C2C(C(=O)N3CCCCC3)=C(C)NC3=C2C(=O)CCC3)cc1OC` (stereo not given), with 674 s.
Consider `Cc1cc(N2CCN(C)CC2)nc2ccc(NC(=O)Nc3ccc(Cl)cc3)cc12`, for which the RP-LC retention time is 610 s.
As for `CN(C)c1cccc(C(=O)NCC(=O)N2CCCc3ccccc32)c1`, the RP-LC retention time came to 728 s.
Then `O=C(CCC1CCN(c2cc(NC3CC3)ncn2)CC1)NCc1ccc(F)cc1`, with 649 s; and `CCOc1cccc(-c2noc(Cn3c(=O)n(-c4cccc(C)c4)c(=O)c4sccc43)n2)c1`, with 1060 s; and `O=C(Cc1cc(-c2ccco2)on1)NCc1ccccn1`, with 581 s.
Then `O=C(NCCc1c[nH]c2ccccc12)c1nn(-c2ccc(Cl)cc2)nc1CO`, with 1020 s; and `Cc1csc(-c2ccc(N3CCN(C(=O)Cc4ccc(Cl)cc4)CC3)nc2)n1`, with 902 s.
Regarding `Cc1nc(C)c(C(=O)NCC2Cn3cccc3C(=O)N2C)s1` (stereo not given), the RP-LC retention time worked out at 594 s.
Take `Cc1ccnc(Nc2nc(C)c(C(=O)N3CCC(C(N)=O)(N4CCCCC4)CC3)s2)c1`: the RP-LC retention time turned out to be 561 s.
Then `Cc1ccc(C)c(N2CCN(c3ccnc(SCC(=O)Nc4ccc(C)c(F)c4)n3)CC2)c1`, with 955 s; and `CCn1c(=O)c(C(=O)NCc2cccc(F)c2)nc2cccnc21`, with 797 s.
As to `Fc1cccc(Cc2nc(-c3cccc(-c4ccn[nH]4)c3)no2)c1`, the RP-LC retention time came to 915 s.
As for `CCc1nc(-n2cccc2)sc1C(=O)Nc1ccc(F)cc1`, the RP-LC retention time was 1080 s.
In the case of `Cc1ccc(CNc2c(-c3ccc(F)cc3)nc3ncccn23)cc1`, the RP-LC retention time worked out at 789 s.
The compound `Cc1cc(Nc2nc(N[C@@H](C)c3ncc(F)cn3)ncc2Cl)n[nH]1` came in with an RP-LC retention time of 622 s.
Compound `Cc1ccsc1C(=O)Nc1ccc(SCc2nnc(-c3ccc4c(c3)OCO4)o2)cc1` registered an RP-LC retention time of 978 s.
In turn, `COc1ccc(NC(=O)Cn2cnc3cc4c(cc32)OCCO4)cc1Cl` came in with an RP-LC retention time of 658 s.
On to `Cc1c(Cl)cccc1NC(=O)Cn1ccc2sccc2c1=O`, for which the RP-LC retention time was 764 s.
As for `O=C(NCc1ccccc1)C1CCN(S(=O)(=O)c2cc(-c3noc(C4CC4)n3)cs2)CC1`, the RP-LC retention time came to 935 s.
Compound `O=S(=O)(CCc1noc(-c2cc(F)cc(F)c2)n1)c1ccccc1` displayed an RP-LC retention time of 939 s.
For `Clc1ccc(-c2nc3ccc(Cl)cn3c2Nc2ccc3c(c2)OCO3)cc1`, the RP-LC retention time was found to be 926 s.
Then `COC(=O)c1c(NCCC(C)C)c2cc(F)ccc2[nH]c1=O`, with 792 s; and `COc1ccc(N2CC(C(=O)NCc3ccccc3OC)CC2=O)cc1` (stereo not given), with 724 s.
For the compound `Cc1ccc(-c2noc(-c3ccccc3S(=O)(=O)N3CCN(c4ccccn4)CC3)n2)cc1`, the RP-LC retention time is 862 s.
The compound `CCN1CCn2cc(S(=O)(=O)N3CCN(c4ccccc4Cl)CC3)cc2C1=O` had an RP-LC retention time of 892 s.
As for `CCCNC(=O)C1CCN(c2ccc(SCC(=O)Nc3ccc(OC)c(OC)c3)nn2)CC1`, the RP-LC retention time is 595 s.
Consider `COc1ncc(C(=O)Nc2cccc(F)c2)c(C)n1`, for which the RP-LC retention time was found to be 757 s.
As for `Cc1ccc(-n2nnc(-c3nc(C)c(C(=O)N4CCC(C(N)=O)CC4)s3)c2C)cc1C`, the RP-LC retention time turned out to be 742 s.
In turn, `Cc1noc(-c2ccc(OC3CN(C(=O)C(C)c4ccccc4)C3)cc2)n1` (stereo not given) had an RP-LC retention time of 934 s.
Regarding `CC(C(=O)NCc1ccccc1F)n1c(=O)c(C(F)(F)F)nc2ccccc21` (stereo not given), the RP-LC retention time came out at 1020 s.
The compound `COc1ccc(OC)c(S(=O)(=O)N2CCCC(C(=O)NC3CCCCC3)C2)c1` (stereo not given) showed an RP-LC retention time of 867 s.
`CCOC(=O)C(CC)n1cccc1-c1nc(-c2cccnc2)no1` (stereo not given) displayed an RP-LC retention time of 1010 s.
In turn, `COc1ccc(OC)c(CNC(=O)Cc2csc3nc(-c4ccccc4)cn23)c1` gave an RP-LC retention time of 779 s.
`O=C(Cn1cc(-c2nc(-c3cccs3)no2)ccc1=O)c1ccc2c(c1)OCO2`: the RP-LC retention time turned out to be 850 s.
In turn, `O=C(NCc1ccc2c(c1)OCO2)C1CN(c2nc3c(F)cccc3s2)C1` registered an RP-LC retention time of 776 s.
Then `Cc1cc(NC(=O)CN2C(=O)C3CCCCN3c3ccc(C(=O)N4CCCC4)cc32)no1` (stereo not given), with 738 s.
Then `CCS(=O)(=O)N1CCN(C(=O)c2cc(-c3ccc(OC)cc3)n[nH]2)CC1`, with 654 s; and `CCn1c(=O)c2ccccc2n(Cc2nc(-c3ccccc3)no2)c1=O`, with 991 s; and `Fc1ccc(-c2nc(-c3ccc4nncn4c3)no2)cc1F`, with 822 s.
`O=C(Nc1ccccc1)C1CCCN(S(=O)(=O)Cc2ccc(Cl)cc2)C1` (stereo not given) registered an RP-LC retention time of 1010 s.
Then `COc1cc(-c2nc3ncccn3c2NC2CCC(C)CC2)ccc1OC(C)C` (stereo not given), with 868 s; and `Nc1cc(C2CCN(C(=O)c3ccc(Br)cc3)CC2)no1`, with 716 s.
Take `O=C1NCCc2ccc(NC(=O)C3(c4ccc(F)cc4)CC3)cc21`: the RP-LC retention time was 706 s.
As to `Cc1cccc2sc(N(CCCN(C)C)C(=O)c3ccccc3Br)nc12`, the RP-LC retention time was found to be 629 s.
As for `COc1ccc(CNC(=O)c2c(O)c3cccnc3[nH]c2=O)cc1`, the RP-LC retention time is 892 s.
The compound `Cn1nccc1-c1cccc(-c2noc(-c3ccc(Br)o3)n2)c1` came in with an RP-LC retention time of 1090 s.
With `CN1CCN(CCC(=O)N2CCC(c3c[nH]c4ccccc34)(c3c[nH]c4ccccc34)CC2)CC1`, the RP-LC retention time is 625 s.
Then `COc1cc(NC(=O)CSC2CCc3ccccc3NC2=O)cc(OC)c1OC` (stereo not given), with 719 s; and `Cc1cc(CNC(=O)C(=O)Nc2cc(Cl)ccc2C#N)c(C)o1`, with 958 s.
Then `Cc1ccc2c(c1)C(=O)NC1(CCN(C(=O)c3cccc(F)c3)CC1)N2C`, with 756 s; and `COc1ccc(-c2noc(Cc3nnc(-c4ccc(Cl)cc4)o3)n2)cc1OC`, with 966 s; and `CC(C)c1ccc(NC(=O)C(=O)NCCCN2CCN(c3ccccc3)CC2)cc1`, with 631 s.
Regarding `OC1(c2ccccn2)CCOC2(CCN(Cc3cccc(F)c3F)CC2)C1` (stereo not given), the RP-LC retention time was 571 s.
For the compound `CCC(CC)C(=O)NCC(c1ccc(Br)cc1)c1c[nH]c2ccccc12` (stereo not given), the RP-LC retention time was 945 s.
`CCc1sc(NC(=O)c2cc(C)on2)nc1-c1ccccc1`: the RP-LC retention time was determined as 1060 s.
Compound `Cc1cc(F)ccc1NC(=O)C1CCCN1S(=O)(=O)c1cc2c(cc1C)NC(=O)CO2` (stereo not given) gave an RP-LC retention time of 761 s.
